PMC3685175 (Journal of medicinal chemistry, 2013)

How the values were obtained:
Type in all cases: biochemical
P450 1A1 = biological target: T1, P450 1A1 (Homo sapiens, UniProt P04798)
T1 sequence (P04798 1-512): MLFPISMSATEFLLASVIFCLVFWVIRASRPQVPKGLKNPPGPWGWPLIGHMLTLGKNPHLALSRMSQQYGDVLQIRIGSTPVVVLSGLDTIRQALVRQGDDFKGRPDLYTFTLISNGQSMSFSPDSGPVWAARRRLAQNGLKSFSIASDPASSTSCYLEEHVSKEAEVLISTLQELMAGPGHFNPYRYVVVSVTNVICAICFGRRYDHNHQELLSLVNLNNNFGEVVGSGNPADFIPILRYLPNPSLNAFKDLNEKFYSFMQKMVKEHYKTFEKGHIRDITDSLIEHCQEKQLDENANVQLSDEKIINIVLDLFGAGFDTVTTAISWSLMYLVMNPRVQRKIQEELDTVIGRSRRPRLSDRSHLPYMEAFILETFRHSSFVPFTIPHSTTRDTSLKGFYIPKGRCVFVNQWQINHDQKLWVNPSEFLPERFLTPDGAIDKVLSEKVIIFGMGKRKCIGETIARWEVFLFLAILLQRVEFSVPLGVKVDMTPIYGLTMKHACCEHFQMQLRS

P450 1A2 = biological target: T2, P450 1A2 (Homo sapiens, UniProt P05177)
T2 sequence (P05177 1-516): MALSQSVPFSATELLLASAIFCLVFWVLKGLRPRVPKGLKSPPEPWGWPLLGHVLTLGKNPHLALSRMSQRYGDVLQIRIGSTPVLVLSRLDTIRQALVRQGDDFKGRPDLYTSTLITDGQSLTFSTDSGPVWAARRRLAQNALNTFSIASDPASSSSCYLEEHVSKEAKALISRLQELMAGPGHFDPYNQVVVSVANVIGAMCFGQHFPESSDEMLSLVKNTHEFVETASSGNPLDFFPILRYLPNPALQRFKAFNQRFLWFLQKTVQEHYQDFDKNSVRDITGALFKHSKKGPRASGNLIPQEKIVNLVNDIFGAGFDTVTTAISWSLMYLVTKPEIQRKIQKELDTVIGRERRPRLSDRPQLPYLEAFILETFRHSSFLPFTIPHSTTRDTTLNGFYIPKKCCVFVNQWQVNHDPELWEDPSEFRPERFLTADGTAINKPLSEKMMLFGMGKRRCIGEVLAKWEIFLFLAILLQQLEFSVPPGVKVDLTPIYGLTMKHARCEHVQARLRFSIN

P450 1B1 = biological target: T3, P450 1B1 (Homo sapiens, UniProt Q16678); settings: from IC50 values
T3 sequence (Q16678 1-543): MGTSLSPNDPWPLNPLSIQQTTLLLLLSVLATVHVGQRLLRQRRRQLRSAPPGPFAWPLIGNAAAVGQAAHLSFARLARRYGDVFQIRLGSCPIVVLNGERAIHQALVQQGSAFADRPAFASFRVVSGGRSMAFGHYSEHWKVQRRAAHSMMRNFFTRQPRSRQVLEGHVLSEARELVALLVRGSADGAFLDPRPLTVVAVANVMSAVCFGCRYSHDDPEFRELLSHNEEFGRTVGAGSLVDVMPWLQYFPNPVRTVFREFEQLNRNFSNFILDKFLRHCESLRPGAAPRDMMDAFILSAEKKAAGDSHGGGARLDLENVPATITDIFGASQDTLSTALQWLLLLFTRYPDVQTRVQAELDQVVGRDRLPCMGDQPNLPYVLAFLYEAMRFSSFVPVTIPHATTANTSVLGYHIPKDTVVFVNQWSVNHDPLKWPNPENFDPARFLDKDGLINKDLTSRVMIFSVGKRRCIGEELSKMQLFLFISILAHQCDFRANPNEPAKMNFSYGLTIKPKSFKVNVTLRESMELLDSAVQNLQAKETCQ

[1] = Kitz-Wilson plot, mechanism-based inactivation

SMILES | KI, P450 1A1 (P450 1A1; [1]) | mechanism of inhibition of P450 1A1 (P450 1A1; in words) | KI, P450 1A2 (P450 1A2; [1]) | mechanism of inhibition of P450 1A2 (P450 1A2; in words) | effect on P450 1A1 (P450 1A1; 0.1 μM inhibitor, in words) | effect on P450 1A2 (P450 1A2; 0.1 μM inhibitor, in words) | inhibition of P450 1A2 (P450 1A2; in words (conclusion)) | selectivity for P450 1B1 over P450 1A1 (P450 1B1) | selectivity for P450 1B1 over P450 1A2 (P450 1B1)
C#CCOc1cccc(-c2cc(=O)c3c(O)cccc3o2)c1 [5H3′FPE, 5-Hydroxy-2-(3-(propargyloxy)phenyl)-4H-chromen-4-one] | 130 nM | mechanism-based inhibitor | 71 nM | mechanism-based inhibitor |  |  |  |  | 
C#CCOc1ccc(-c2cc(=O)c3c(O)cccc3o2)cc1 [5H4′FPE, 5-Hydroxy-2-(4-(propargyloxy)phenyl)-4H-chromen-4-one] |  |  |  |  | without having any significant effect | without having any significant effect | no inhibition | 120 times | more than 250 times
